Source: patent publication US20140121235A1, “Method for Treating S6K-Overexpressing Cancers” (Rush University Medical Center, priority 2012, published 2014)

Columns and labels:
cyclin D1 expression = experiment: Cyclin D1 expression in A375 cells; type: cell-based; design: dose or concentration left out as unconfirmed; details: A375 cells, 24, 48 and 72 hours; time-dependent
Procedure: FIG. 13 illustrates inhibition of […]) expression by A 77 1726.
S6K 1 has been implicated in playing an important role in regulating expression of cyclin D1. Cyclin D1 expression was tested in the presence of A 77 1726. A375 cells were treated with […] A 77 1726 for 0, 24, 48 and 72 hours.

[1] = target: recombinant p70 S6 kinase (S6K1) (Homo sapiens, UniProt P23443); experiment: In vitro p70 S6 kinase assay (ADP-Glo Kinase assay system); type: biochemical; details: 30 min pre-incubation, ATP 10 μM, 1 hr, read-out: IC50, inhibition of recombinant S6K1 activity
Procedure: Leflunomide and A77 1726 diluted at the final concentrations as indicated were pre-mixed with S6K1 for 30 min, followed by the addition of peptide substrate of S6K1 and incubation for 1 hr. S6K1 activity was measured by using a ADP-Glo™ system. The experiment was repeated with similar results. The data represents the mean±standard deviation from one experiment in triplicate.
The ability of lefiunomide and A77 1726 to inhibit p70 S6 kinase assay was conducted by using an ADP-Glo™ Kinase assay system (Promega Corporation, Madison, Wis.). Briefly, A77 1726 or leflunomide diluted in the kinase buffer was mixed with recombinant p70 S6 kinase (100 ng/reaction) and incubated at room temperature for 30 min. Peptide substrate of p70 S6 kinase (5 μg/reaction) and ATP (10 μM, final concentration) was added, with a total final volume of 25 μl. After incubation for 1 hr, ADP-Glo™ reagent (25 μl) was added to each reaction. After incubation for 40 min, kinase detection substrate (luciferin) (50 μl/reaction) was added. After incubation fix 30 min, luciferase activity was measured by reading in a luminescence plate reader. The experiment was conducted in triplicate and repeated once with similar results. The data from one experiment were presented as mean±standard deviation.

BT-20 cells = experiment: Western blot of protein phosphorylation in BT-20 cells; type: cell-based
Procedure: (A) A77 1726 induces MAP kinase activation in A375 cells cultured in 10% fetal bovine serum. A375 cells were seeded in a 6-well plate overnight and then stimulated with various concentrations of A77 1726 or PLX 4720 (1 μM) for 2 hr. Cells were harvested and analyzed for MAP kinase activation by anti-phospho-ERK1/2 antibody. The membrane was stripped and re-probed with anti-ERK1/2 antibody. (B) Lack of the feedback activation of the MAP and PI-3 kinase pathways in BT-20 cells. BT20 cells seeded in 6-well plates were starved in DMEM medium containing 05% EBS for 2 hr and treated with A77 1726 (0, 50 or 100 μM), Cells were harvested and analyzed for protein phosphorylation by specific antibodies as indicated. Protein loading was monitored by stripping membrane and re-probing with antibodies against non-phosphorylated proteins. (C) Strong feedback activation of the PI-3 kinase pathway and weak feedback activation of the MAP kinase pathway in MCF-7 cells by A77 1726 and rapamycin. […] Cells were harvested and analyzed for protein phosphorylation with the indicated antibodies. […] Cells were harvested and analyzed for protein phosphorylation by specific antibodies as indicated. Protein loading was monitored by stripping membrane and re-probing with antibodies against nonphosphorylated proteins. […]

recombinant p70 S6 kinase (S6K1), sequence (P23443 whole entry): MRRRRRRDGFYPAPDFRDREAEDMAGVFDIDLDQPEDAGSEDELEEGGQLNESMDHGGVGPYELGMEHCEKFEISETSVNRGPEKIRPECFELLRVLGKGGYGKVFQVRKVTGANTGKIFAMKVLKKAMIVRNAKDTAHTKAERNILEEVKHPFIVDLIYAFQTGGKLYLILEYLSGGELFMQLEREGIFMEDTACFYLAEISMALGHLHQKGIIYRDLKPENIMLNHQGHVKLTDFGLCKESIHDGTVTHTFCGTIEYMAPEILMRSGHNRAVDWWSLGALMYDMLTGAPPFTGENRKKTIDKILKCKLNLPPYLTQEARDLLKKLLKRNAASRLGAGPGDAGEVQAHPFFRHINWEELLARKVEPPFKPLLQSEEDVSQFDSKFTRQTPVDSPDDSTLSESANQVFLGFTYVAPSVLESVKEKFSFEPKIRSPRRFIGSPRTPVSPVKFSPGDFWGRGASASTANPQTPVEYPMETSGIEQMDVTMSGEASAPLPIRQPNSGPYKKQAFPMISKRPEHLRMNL

C/C(O)=C(\C#N)C(=O)Nc1ccc(C(F)(F)F)cc1 [A77 1726]
effect on cyclin D1 expression (cyclin D1 expression): inhibited | IC50 [1]: ~80 µM | effect on ERK phosphorylation (BT-20 cells): had no effect | effect on S6^S235/236 phosphorylation (BT-20 cells): Inhibition
